Measured values as given in article PMC2724708, “Adenosine Kinase of T. b. rhodesiense Identified as the Putative Target of 4-[5-(4-phenoxyphenyl)-2H-pyrazol-3-yl]morpholine Using Chemical Proteomics” (PLoS Neglected Tropical Diseases, 2009).
≈ marks a conversion by molar mass, not a printed value.

How the values were obtained:
[1] = molecular target: T1, glycosomal T. b. rhodesiense glyceraldehyde-3-phosphate dehydrogenase (TbrGAPDH) (Trypanosoma brucei brucei, UniProt P22512); test: Thermal stability assay (CD spectroscopy) regarding TbrGAPDH; format: binding; settings: for ∆Tm of TbrGAPDH: vs TbrGAPDH alone
T1 construct: made in house; host or cells: E. coli BL21(DE3), pET28a
Experimental: Thermal unfolding of TbrGAPDH and TbrAK was studied by circular dichroism (CD) spectroscopy at 220 nm within the temperature range of 20–90°C using a heating rate of 40°C/h. […]
All measurements were done in a 0.5 mm cell and contained 0.1 %
(§1) DMSO and 2.5 mM EDTA to prevent enzyme activity. Thermal stability was analyzed in presence of 500 µM substrate to record the maximum stability limit, whereas compounds 1 to 5 were used at a concentration of 50 µM, being the highest concentration achievable for compound 2, to allow comparison of all compounds at the same concentration. For evaluation of the CD spectra, the buffer spectrum was subtracted from the protein CD spectrum. All thermal unfolding curves were fitted to a two-state model that had been published recently. The mean of three independent experiments are reported. […]

[2] = molecular target: T2, adenosine kinase of T. b. rhodesiense (TbrAK) (Trypanosoma brucei rhodesiense, UniProt Q584S0); test: Thermal stability assay (CD spectroscopy) regarding TbrAK; format: binding; settings: for Tm of TbrAK: 13 µM TbrAK
T2 sequence (Q584S0 1-345): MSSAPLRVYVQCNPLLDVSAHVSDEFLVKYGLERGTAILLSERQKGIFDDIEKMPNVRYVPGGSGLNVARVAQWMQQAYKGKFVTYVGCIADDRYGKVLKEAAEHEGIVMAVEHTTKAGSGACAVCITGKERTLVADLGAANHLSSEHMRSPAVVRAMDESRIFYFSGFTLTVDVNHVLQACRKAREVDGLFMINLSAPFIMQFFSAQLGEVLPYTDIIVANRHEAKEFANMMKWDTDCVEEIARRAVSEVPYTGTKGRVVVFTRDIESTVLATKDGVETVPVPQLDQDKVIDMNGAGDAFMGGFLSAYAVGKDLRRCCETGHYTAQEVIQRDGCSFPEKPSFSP
Experimental: Thermal unfolding of TbrGAPDH and TbrAK was studied by circular dichroism (CD) spectroscopy at 220 nm within the temperature range of 20–90°C using a heating rate of 40°C/h.
as §1, with “TbrAK in buffer E1 (20 mM Hepes, 150 mM NaCl, pH 7.0) was used at 0.5 mg/ml (final concentration 13 µM). All measurements were done in a 0.5 mm cell and contained 0.1 % DMSO” for “DMSO”

[3] = molecular target: T2, adenosine kinase of T. b. rhodesiense (TbrAK); test: Radiometric assay for kinetic study of TbrAK
Experimental: (§2) Kinetic constants for adenosine phosphorylation by TbrAK were obtained by monitoring the conversion of [2-^3H]adenosine to [2-^3H]AMP. Reactions were executed at 37°C in a final volume of 30 µl containing 20 mM Hepes (pH 7.0), 50 mM NaCl, 167 µM ATP, 167 µM MgCl2, 0.34% BSA, and 0.34% DMSO. […] The concentration of [2-^3H]adenosine (0.1–12 µM) was chosen in consideration of Michaelis–Menten conditions for initial velocity measurements. The reaction was started by the addition of 1 ng (0.88 nM) TbrAK. The reactions were incubated and 5 µl aliquots were spotted on 5 mm diameter DE81-cellulose disks placed in a 96-well plate to stop the reaction. The disks were washed 3 times with 250 µl 5 mM ammonium formate, once with H2O, transferred to scintillation vials, and then soaked with 2 ml of a displacement solution (100 mM HCl, 200 mM KCl) and gently shaken for 1 minute to elute the phosphorylated products [9]. After adding 10 ml scintillation liquid, the samples were counted in scintillation counter. Km and Vmax with respect to adenosine and Ki for adenosine substrate-inhibition in absence and presence of compound 1 were determined by non-linear fit of the data to the substrate-inhibition model described elsewhere [10].

T. b. rhodesiense = test system: T. b. rhodesiense; design: method as in PMID 17949068; settings: in vitro, blood stage parasite; read-out: IC50 against blood stage T.b. rhodesiense; cited from earlier work
[4] = molecular target: T2, adenosine kinase of T. b. rhodesiense (TbrAK); test: HPLC activity assay for TbrAK; format: biochemical; settings: for activity at 50 µM: 37°C, ADP/ATP ratio, read-out: TbrAK activity in presence of compound (% of activity without compound); for concentration dependence of the activation effect: range 1–750 µM, up to solubility limit
Experimental: TbrAK catalyzes the ATP-dependent phosphorylation of the 5′-hydroxyl moiety of adenosine to form AMP and ADP. The activity assay was based on HPLC separation of substrate and products (adenosine, AMP, ADP, and ATP). The mobile phase consisted of 35 mM KH2PO4, 6 mM tetrabutylammonium hydrogensulfate, (pH 7.0, adjusted with KOH), 125 mM EDTA, and 1% (v/v) acetonitrile. The separation was performed isocratically at a flow-rate of 1.5 ml/min and monitored at 254 nm. The standard reaction in 75 µl total volume containing 0.5 mM ATP, 0.5 mM adenosine, 0.5 mM MgCl2, 1% DMSO in buffer E1 (20 mM Hepes, 150 mM NaCl, pH 7.0) was started with the addition of 2 µg TbrAK (final concentration 0.7 µM) and incubated at 37°C for 10 min while shaking vigorously (600 rpm). […] All reactions were stopped by adding 75 µl mobile phase. 50 µl of the sample volume were injected for analysis and the resulting ADP/ATP ratios were calculated and used as a measure of activity. For comparative reasons the activity recorded in absence of compound was set to 100%. The mean of three independent measurements are reported.

[5] = Solubility limit in the assay mixture; format: physicochemical; settings: HPLC activity assay mixture (buffer E1 with 1% DMSO), 37 °C, pH 7, aqueous buffer, kinetic from dmso stock, read-out: solubility limiting concentration
[6] = design: method as in PMID 17949068; settings: cited from earlier work
[7] = test system: bloodstream-form T. b. brucei TbAK RNAi cells; test: Drug sensitivity test (Alamar blue) on TbAK RNAi knock-down mutant; format: cell-based
Experimental: The construction of the T. b. brucei adenosine kinase gene knock-down mutant has been described recently. Expression of a stem-loop construct targeting TbAK was induced by addition of 10 µg/ml tetracycline to the medium. Down-regulation of TbAK expression was verified by Northern blotting. Parasites were cultivated and drug sensitivity was tested using the Alamar blue test. IC50 values were calculated by nonlinear fitting to the sigmoidal dose-response curve using Origin® software. The assays were performed in triplicates for at least four times.

[8] = substrate: Nc1ncnc2c1ncn2[C@@H]1O[C@H](CO)[C@@H](O)[C@H]1O; test: purified protein, by the assay type; settings: other: in absence of compound 1, 167 µM ATP; pH 7.0; 37.0 °C
Experimental: as §2

[9] = 50 µM compound, 0.7 µM TbrAK, 10 min

T1 sequence (P22512 whole entry): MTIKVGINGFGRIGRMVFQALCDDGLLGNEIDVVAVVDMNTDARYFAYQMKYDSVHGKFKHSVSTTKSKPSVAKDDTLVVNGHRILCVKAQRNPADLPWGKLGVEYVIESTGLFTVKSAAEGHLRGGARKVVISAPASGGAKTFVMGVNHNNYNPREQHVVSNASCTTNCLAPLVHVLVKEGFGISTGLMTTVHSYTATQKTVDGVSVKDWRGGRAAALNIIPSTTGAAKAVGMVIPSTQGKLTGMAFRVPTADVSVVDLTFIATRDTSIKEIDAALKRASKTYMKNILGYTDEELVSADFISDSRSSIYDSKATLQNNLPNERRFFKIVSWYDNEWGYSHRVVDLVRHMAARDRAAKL

| Molecule | Tm of TbrAK ([2]; compound at 50 µM) | ΔTm at 50 µM ([2]; read-out: ΔTm of TbrAK) | IC50 (T. b. rhodesiense) | activity at 50 µM [4, 9] | concentration dependence of the activation effect [4] | Tm of TbrGAPDH ([1]; compound at 50 µM) | further results |
| --- | --- | --- | --- | --- | --- | --- | --- |
| O=CC(O)COP(=O)(O)O (racemic) [DL-GAP, DL-glyceraldehyde-3-phosphate, reference compound] |  |  |  |  |  |  | Tm of TbrGAPDH ([1]; substrate at 500 µM): 50.0 ± 0.7 °C; ∆Tm of TbrGAPDH ([1]; substrate at 500 µM): 2.4 °C |
| Nc1ncnc2c1ncn2[C@@H]1O[C@H](COP(=O)(O)OP(=O)(O)OP(=O)(O)O)[C@@H](O)[C@H]1O [ATP, reference compound] |  |  |  |  |  |  | Tm of TbrAK ([2]; substrate at 500 µM): 42.8±0.1 °C; ΔTm of TbrAK ([2]; substrate at 500 µM, vs apo TbrAK): −0.3 °C |
| NC(=O)c1ccc[n+]([C@@H]2O[C@H](COP(=O)([O-])OP(=O)(O)OC[C@H]3O[C@@H](n4cnc5c(N)ncnc54)[C@H](O)[C@@H]3O)[C@@H](O)[C@H]2O)c1 [NAD+, reference compound] |  |  |  |  |  |  | Tm of TbrGAPDH ([1]; substrate at 500 µM): 55.6 ± 0.2 °C; ∆Tm of TbrGAPDH ([1]; substrate at 500 µM): 8.0 °C |
| Nc1ncnc2c1ncn2[C@@H]1O[C@H](CO)[C@@H](O)[C@H]1O [adenosine] |  |  |  |  |  |  | ΔTm at 500 µM ([2]; read-out: ΔTm of TbrAK): 7.6 °C; Tm of TbrAK ([2]; substrate at 500 µM): 50.7±0.2 °C; Ki [3]: 6.1 ± 1.4 µM |
| Nc1ccc(Oc2ccc(-c3cc(N4CCOCC4)[nH]n3)cc2)cc1 [compound 2, 4-[4-(5-morpholine-4-yl-1H-pyrazol-3-yl)-phenoxy]phenylamine] | 45.9±0.4 °C | 2.8 °C | 17.7 µM | 174 ± 5% | concentration dependent | 47.0 ± 0.4 °C | fold induction at 50 µM ([4]; 10 min, pH 7, 50 µM compound, read-out: fold increase of TbrAK activity): 1.7; solubility [5]: ≤ 50 µM |
| Nc1ccc(-n2nc(-c3ccc(Oc4ccccc4)cc3)cc2N2CCOCC2)cc1 [compound 3, 4-[5-morpholine-4-yl-3-(4-phenoxyphenyl)-pyrazol-1-yl]phenylamine] | 42.8±0.2 °C | -0.3 °C | 10.3 µM | 110 ± 1% | did not activate TbrAK | 45.5 ± 0.6 °C |  |
| c1ccc(Oc2ccc(-c3cc(N4CCNCC4)[nH]n3)cc2)cc1 [compound 4] | 43.2±0.1 °C | 0.1 °C | 1.1 µM | 109 ± 1% | concentration dependent | 47.0 ± 0.1 °C | EC50 ([4]; 0.5 mM ATP, 0.5 mM adenosine, 0.7 µM TbrAK, read-out: EC50 of TbrAK activation (HPLC assay)): > 750 µM; fold increase of EC50 relative to compound 1 ([4]; HPLC assay): at least 20 fold; solubility [5]: 750 µM (≈ 240 µg/mL); cytotoxicity / general toxicity [6]: increased general toxicity |
| c1ccc(Oc2ccc(-c3cc[nH]n3)cc2)cc1 [compound 5, 3-(4-phenoxyphenyl)-1H-pyrazole] | 43.4±0.1 °C | 0.3 °C | > 65 µM | 102 ± 2% | did not activate TbrAK | 46.7 ± 0.2 °C | IC50 difference between induced and non-induced TbAK RNAi cells [7]: did not exhibit any IC50 difference; IC50 ([6]; read-out: general toxicity IC50): > 136 µM |
| adenosine kinase of T. b. rhodesiense (TbrAK) (Trypanosoma brucei brucei TREU927) (protein) MSSAPLRVYVQCNPLLDVSAHVSDEFLVKYGLERGTAILLSERQKGIFDDIEKMPNVRYVPGGSGLNVARVAQWMQQAYKGKFVTYVGCIADDRYGKVLKEAAEHEGIVMAVEHTTKAGSGACAVCITGKERTLVADLGAANHLSSEHMRSPAVVRAMDESRIFYFSGFTLTVDVNHVLQACRKAREVDGLFMINLSAPFIMQFFSAQLGEVLPYTDIIVANRHEAKEFANMMKWDTDCVEEIARRAVSEVPYTGTKGRVVVFTRDIESTVLATKDGVETVPVPQLDQDKVIDMNGAGDAFMGGFLSAYAVGKDLRRCCETGHYTAQEVIQRDGCSFPEKPSFSP |  |  |  |  |  |  | Km [8]: 0.99 ± 0.05 µM |
